These results are taken from patent US7803930B2, “Antisense modulation of apolipoprotein B-expression” (Isis Pharmaceuticals, Inc., priority 2002, dated 2010).

In the oligonucleotide strings, read from the 5' end, every base follows the letter of its sugar. An asterisk marks phosphorothioate; unmarked linkages are phosphodiester. Other units and linkages are bracketed, terminal groups are in braces. A string of capitals states the bases alone. e = 2'-O-(2-methoxyethyl) (MOE); [5mC] = 5-methylcytosine; d = 2'-deoxy (DNA)

In the first data set the test system is human apolipoprotein B mRNA. The data set can be described thus: Inhibition of human apolipoprotein B mRNA levels in HepG2 cells, quantitative real-time PCR. It counts as cell-based. Conditions: HepG2 cells treated with 150 nM of compound; averages from two experiments; quantitative real-time PCR. How it is done: The human hepatoblastoma cell line HepG2 was obtained from the American Type Culture Collection (Manassas, Va.). HepG2 cells were routinely cultured in Eagle's MEM supplemented with 10% fetal calf serum, non-essential amino acids, and 1 mM sodium pyruvate (Gibco/Life Technologies, Gaithersburg, Md.). Cells were routinely passaged by trypsinization and dilution when they reached 90% confluence. Cells were seeded into 96-well plates (Falcon-Primaria #3872) at a density of 7000 cells/well for use in RT-PCR analysis.
When cells reached 80% confluency, they were treated with oligonucleotide. For cells grown in 96-well plates, wells were washed once with 200 μL OPTI-MEM™-1 reduced-serum medium (Gibco BRL) and then treated with 130 μL of OPTI-MEM™-1 containing 3.75 μg/mL LIPOFECTIN™ (Gibco BRL) and the desired concentration of oligonucleotide. After 4-7 hours of treatment, the medium was replaced with fresh medium. Cells were harvested 16-24 hours after oligonucleotide treatment.
Quantitation of apolipoprotein B mRNA levels was determined by real-time quantitative PCR using the ABI PRISM™ 7700 Sequence Detection System (PE-Applied Biosystems, Foster City, Calif.) according to manufacturer's instructions. This is a closed-tube, non-gel-based, fluorescence detection system which allows high-throughput quantitation of polymerase chain reaction (PCR) products in real-time. As opposed to standard PCR, in which amplification products are quantitated after the PCR is completed, products in real-time quantitative PCR are quantitated as they accumulate. This is accomplished by including in the PCR reaction an oligonucleotide probe that anneals specifically between the forward and reverse PCR primers, and contains two fluorescent dyes. A reporter dye (e.g., JOE, FAM, or VIC, obtained from either Operon Technologies Inc., Alameda, Calif. or PE-Applied Biosystems, Foster City, Calif.) is attached to the 5′ end of the probe and a quencher dye (e.g., TAMRA, obtained from either Operon Technologies Inc., Alameda, Calif. or PE-Applied Biosystems, Foster City, Calif.) is attached to the 3′ end of the probe. When the probe and dyes are intact, reporter dye emission is quenched by the proximity of the 3′ quencher dye. During amplification, annealing of the probe to the target sequence creates a substrate that can be cleaved by the 5′-exonuclease activity of Taq polymerase. […] With each cycle, additional reporter dye molecules are cleaved from their respective probes, and the fluorescence intensity is monitored at regular intervals by laser optics built into the ABI PRISM™ 7700 Sequence Detection System. In each assay, a series of parallel reactions containing serial dilutions of mRNA from untreated control samples generates a standard curve that is used to quantitate the percent inhibition after antisense oligonucleotide treatment of test samples.
PCR reagents were obtained from PE-Applied Biosystems, Foster City, Calif. RT-PCR reactions were carried out by adding 25 μL PCR cocktail (1× TAQMAN™ buffer A, 5.5 mM MgCl2, 300 μM each of DATP, dCTP and dGTP, 600 μM of dUTP, 100 nM each of forward primer, reverse primer, and probe, 20 Units RNAse inhibitor, 1.25 Units AMPLITAQ GOLD™, and 12.5 Units MuLV reverse transcriptase) to 96 well plates containing 25 μL total RNA solution. The RT reaction was carried out by incubation for 30 minutes at 48° C. Following a 10 minute incubation at 95° C. to activate the AMPLITAQ GOLD™, 40 cycles of a two-step PCR protocol were carried out: 95° C. for 15 seconds (denaturation) followed by 60° C. for 1.5 minutes (annealing/extension).
Gene target quantities obtained by real time RT-PCR are normalized using either the expression level of GAPDH, a gene whose expression is constant, or by quantifying total RNA using RiboGreen™ (Molecular Probes, Inc. Eugene, Oreg.). GAPDH expression is quantified by real time RT-PCR, by being run simultaneously with the target, multiplexing, or separately. […]
(Real-time PCR tracks product formation cycle by cycle.)
In the case of “271028 (e[5mC]*eG*e[5mC]*eA*eG*dG*dT*d[5mC]*dA*dG*d[5mC]*d[5mC]*dT*dG*dA*e[5mC]*eT*eA*eG*eA; antisense) [compound 271028]”, the “% INHIB (inhibition of human apolipoprotein B mRNA levels)” value was 98%. As to “270991 (antisense eG*eA*eG*e[5mC]*eA*dG*dT*dT*dT*d[5mC]*d[5mC]*dA*dT*dA*d[5mC]*eA*e[5mC]*eG*eG*eT) [compound 270991]”, the “% INHIB (inhibition of human apolipoprotein B mRNA levels)” value stood at 21%. Take “301025 (eT*eA*eT*eG*eT*dG*dA*dA*dA*dG*dT*dT*d[5mC]*dA*dA*eT*eT*eG*eG*eA; antisense) [compound 301025]”: the “% INHIB (inhibition of human apolipoprotein B mRNA levels)” value is given as 76%. As for “281614 (antisense eT*eA*eA*eG*e[5mC]*dT*dG*dT*dA*dG*d[5mC]*dA*dG*dA*dT*eG*eA*eG*eT*e[5mC]) [compound 281614]”, the “% INHIB (inhibition of human apolipoprotein B mRNA levels)” value is on record as 63%. On the same count and under the same terms, as for “270987 (antisense e[5mC]*e[5mC]*eT*e[5mC]*e[5mC]*dA*dG*d[5mC]*dT*d[5mC]*dA*dA*d[5mC]*d[5mC]*dT*eT*eG*e[5mC]*eA*eG) [compound 270987]”, the figure is 0%; as for “271016 (antisense eA*e[5mC]*e[5mC]*e[5mC]*eA*dG*dA*dA*dT*d[5mC]*dA*dT*dG*dG*d[5mC]*e[5mC]*eT*eG*eA*eT) [compound 271016]”, 19%; as for “281597 (eG*eG*eT*eA*eG*dG*dT*dG*dA*d[5mC]*d[5mC]*dA*d[5mC]*dA*dT*e[5mC]*eT*eA*eT*e[5mC]; antisense) [compound 281597]”, 36%. With “270986 (antisense e[5mC]*eT*e[5mC]*e[5mC]*eA*d[5mC]*dT*dG*dG*dA*dA*d[5mC]*dT*d[5mC]*dT*e[5mC]*eA*eG*e[5mC]*e[5mC]) [compound 270986]”, the “% INHIB (inhibition of human apolipoprotein B mRNA levels)” value is 0%.

In the case of “281646 (eT*e[5mC]*e[5mC]*e[5mC]*eG*dG*dA*d[5mC]*d[5mC]*d[5mC]*dT*d[5mC]*dA*dA*d[5mC]*eT*e[5mC]*eA*eG*eT; antisense) [compound 281646]”, the “% INHIB (inhibition of human apolipoprotein B mRNA levels)” value is on record as 76%. Same read-out and setting: as for “281643 (eG*eA*e[5mC]*eA*eT*dT*dT*dG*d[5mC]*d[5mC]*dA*dT*dG*dG*dA*eG*eA*eG*eA*eG; antisense) [compound 281643]”, the figure is 61%.

The same data set, now with this note: HepG2 cells; 50 nm oligonucleotide; variable deoxy gap position.
As for “308640 (AGGTTACCAGCCACATGCAG; 2-10-8 MOE gapmer, phosphorothioate, chemistry not fully specified) [compound 308640]”, the “% INHIB 50 nm” value is 76%.

Still in this data set, the particulars now being: HepG2 cells; 150 nm oligonucleotide; variable deoxy gap position.
As for “308640 (AGGTTACCAGCCACATGCAG; 2-10-8 MOE gapmer, phosphorothioate, chemistry not fully specified) [compound 308640]”, the “% INHIB 150 nm” value stood at 96%.

Still in this data set, the particulars now being: HepG2 cells; human apolipoprotein B mRNA; oligonucleotides targeting genomic sequence SEQ ID NO 334; averages from two experiments.
For “301069 (eG*eG*e[5mC]*eT*eG*dA*dA*dG*d[5mC]*d[5mC]*d[5mC]*dA*dT*dG*d[5mC]*eT*eG*eA*e[5mC]*eT; antisense) [compound 301069]”, the “% INHIB” value is 44%. Consider “301101 (antisense eG*eG*eA*eG*eG*dT*dG*d[5mC]*dT*dA*d[5mC]*dT*dG*dT*dT*eG*eA*e[5mC]*eA*eT) [compound 301101]”, for which the “% INHIB” value is 42%. For the substance “301136 (e[5mC]*eT*eT*e[5mC]*eA*d[5mC]*dA*dA*dA*dT*dA*d[5mC]*dA*d[5mC]*dA*e[5mC]*e[5mC]*eT*eG*e[5mC]; antisense) [compound 301136]”, the “% INHIB” value was found to be 20%. With “301075 (eT*eT*e[5mC]*eA*eA*dG*dG*dG*d[5mC]*d[5mC]*dA*d[5mC]*dT*dG*d[5mC]*eT*eA*eT*e[5mC]*eA; antisense) [compound 301075]”, the “% INHIB” value was determined as 52%. In the case of “301215 (antisense eT*eA*eT*eA*eG*dT*dA*d[5mC]*dA*d[5mC]*dT*dA*dA*dA*dA*e[5mC]*eT*eT*e[5mC]*eA) [compound 301215]”, the “% INHIB” value is given as 1%. “301130 (e[5mC]*eT*eG*eA*e[5mC]*dA*d[5mC]*dA*d[5mC]*d[5mC]*dA*dT*dG*dT*dT*eA*eT*eT*eA*eT; antisense) [compound 301130]”: the “% INHIB” value was 10%. On the same count and under the same terms, as for “301143 (eT*eT*eA*e[5mC]*e[5mC]*dA*dT*dA*dT*d[5mC]*d[5mC]*dT*dG*dA*dG*eA*eG*eT*eT*eT; antisense) [compound 301143]”, the figure is 55%; as for “301178 (antisense eA*eG*eG*eA*eT*dT*d[5mC]*d[5mC]*d[5mC]*dA*dA*dG*dA*d[5mC]*dT*eT*eT*eG*eG*eA) [compound 301178]”, 38%; as for “301118 (antisense eA*eT*eG*eT*eG*d[5mC]*dA*d[5mC]*dA*d[5mC]*dA*dA*dG*dG*dA*e[5mC]*eA*eT*eA*eG) [compound 301118]”, 33%. Consider “301142 (eA*eT*eG*e[5mC]*eA*dG*d[5mC]*d[5mC]*dA*dG*dG*dA*dT*dG*dG*eG*e[5mC]*e[5mC]*eT*eA; antisense) [compound 301142]”, for which the “% INHIB” value is reported as 54%.

With “301053 (eG*eT*e[5mC]*eG*e[5mC]*dA*dT*d[5mC]*dT*dT*d[5mC]*dT*dA*dA*d[5mC]*eG*eT*eG*eG*eG; antisense) [compound 301053]”, the “% INHIB” value is recorded as 45%. Regarding “301089 (antisense eG*eA*eA*eG*eG*dT*d[5mC]*d[5mC]*dA*dT*dG*dG*dT*dT*d[5mC]*eA*eT*e[5mC]*eT*eG) [compound 301089]”, the “% INHIB” value stood at 0%. Regarding “301117 (antisense eT*eA*eG*eA*e[5mC]*dA*dA*dT*dT*dG*dA*dG*dA*d[5mC]*dT*e[5mC]*eA*eG*eA*eA) [compound 301117]”, the “% INHIB” value came to 39%. Take “301065 (eA*eG*e[5mC]*eT*eG*d[5mC]*dA*dG*dT*dG*dG*d[5mC]*d[5mC]*dG*dA*eT*e[5mC]*eA*eG*e[5mC]; antisense) [compound 301065]”: the “% INHIB” value is listed as 50%. “301179 (antisense e[5mC]*eA*eG*e[5mC]*eT*d[5mC]*dT*dA*dA*dT*d[5mC]*dT*dA*dA*dA*eG*eA*e[5mC]*eA*eT) [compound 301179]”: the “% INHIB” value was 22%.

Still in this data set, the particulars now being: Table 1; HepG2 cells, 150 nM; averages from two experiments.
With “147780 (antisense e[5mC]*e[5mC]*eG*e[5mC]*eA*dG*dG*dT*d[5mC]*d[5mC]*d[5mC]*dG*dG*dT*dG*eG*eG*eA*eA*eT) [compound 147780]”, the “% INHIB” value is on record as 40%.

Staying with this data set, now noted: Table 11 gene walk; HepG2 cells, 50 nM; averages from two experiments.
Turning to “308607 (eA*eT*eT*eT*eG*dA*dA*dT*dG*dT*d[5mC]*dA*dT*dG*dG*eT*eA*eG*e[5mC]*e[5mC]; antisense) [compound 308607]”, the “% INHIB 50 nm” value is 9%.

On to “308590 (antisense eA*e[5mC]*e[5mC]*eT*eT*d[5mC]*dT*dG*d[5mC]*dT*dT*dG*dA*dG*dT*eT*eA*e[5mC]*eA*eA) [compound 308590]”, for which the “% INHIB 50 nm” value is given as 26%. The same measure, in the same setting: as for “308611 (eT*eT*eA*e[5mC]*e[5mC]*dA*dG*d[5mC]*d[5mC]*dA*d[5mC]*dA*dT*dG*d[5mC]*eA*eG*e[5mC]*eT*eT; antisense) [compound 308611]”, the figure is 59%.

The data set is the same for the next values; noted with them: Table 11 gene walk; HepG2 cells, 150 nM; averages from two experiments.
Consider “308607 (eA*eT*eT*eT*eG*dA*dA*dT*dG*dT*d[5mC]*dA*dT*dG*dG*eT*eA*eG*e[5mC]*e[5mC]; antisense) [compound 308607]”, for which the “% INHIB 150 nm” value came to 77%. Consider “308590 (antisense eA*e[5mC]*e[5mC]*eT*eT*d[5mC]*dT*dG*d[5mC]*dT*dT*dG*dA*dG*dT*eT*eA*e[5mC]*eA*eA) [compound 308590]”, for which the “% INHIB 150 nm” value is recorded as 98%. With “308611 (eT*eT*eA*e[5mC]*e[5mC]*dA*dG*d[5mC]*d[5mC]*dA*d[5mC]*dA*dT*dG*d[5mC]*eA*eG*e[5mC]*eT*eT; antisense) [compound 308611]”, the “% INHIB 150 nm” value was determined as 95%.
